# Data published in patent US8563715B2, “Pyrimidine derivative having cell protecting effect and uses thereof” (Zenyaku Kogyo Kabushikikaisha, priority 2008, dated 2013).
# What was measured:
# [1] = tested on: rat brain homogenate (lipid peroxide production); test: Antioxidant activity test (rat brain homogenate autoxidation test); format: biochemical; conditions: lipid peroxide production suppression, 2 hours at 37 degrees Celsius, thiobarbituric acid method
# Experimental: The cerebrum was removed from 7 to 11 week old male Wistar rats (Nihon Ikagaku) or male Sprague-Dawley (IGS) rats (Charles River), physiological saline was added, and a 20% brain homogenate was made. 4 μl of test compound dissolved in DMSO was mixed with 200 μl of brain homogenate and 200 μl of PBS (−) (diluted 100 times), incubated for 2 hours at 37 degrees Celsius and shaken at a rate of 160 times per minute, thereby producing a lipid peroxide. After cooling for 5 minutes, the produced lipid peroxide was measured as a thiobarbituric acid reactive substance by using the thiobarbituric acid method. Briefly, 100 μl of 8.1% dodecyl sulfate, 750 μl of 20% acetic acid adjusted to a pH of 3.5, and 750 μl of 0.8% thiobarbituric acid were added, and boiled for 60 minutes, and then cooled. Next, 500 μl of distilled water and 2.5 ml of N-butanol/pyridine (15:1) were added and after 5 minutes of shaking, the supernatant was taken after centrifuging for 10 minutes at 3000 rpm, and the absorbance at 532 nm was measured. The number of examples was 2 examples. Calculation was done of the (absorbance at each concentration/absorbance of a solvent control)×100, and after logit transformation, the lipid peroxide production suppression effect (IC 50 value) was calculated as an indicator of antioxidant activity.
# [2] = tested on: neurons in astrocyte/neuron co-culture; test: Brain cell damage induced by hydrogen peroxide treatment (neuroprotective effect, microscope observation); format: cell-based; conditions: Rattus norvegicus, hydrogen peroxide (250 μM), 24 hours, read-out: Concentration for complete inhibition of neuronal death
# Summary of the method: (§1)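 Rat primary cortical/hippocampal co-cultures were used 8–9 days after plating neurons (E18.5) on neonatal astrocyte layers. Test substance was added together with 250 μM hydrogen peroxide, and cells were analysed 24 h later. LDH release gave EC50 for protection of the whole co-culture, and microscopy of neuronal cell bodies and processes gave neuroprotection.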
# [3] = tested on: astrocyte/neuron co-culture; test: Brain cell damage induced by hydrogen peroxide treatment (LDH assay); format: cell-based; conditions: Rattus norvegicus, hydrogen peroxide (250 μM), 24 hours, read-out: 50% inhibition concentration against cell damage in entire co-culture system (EC50 value)
# Summary of the method: as §1
SMILES,IC50 [1],EC100 [2],EC50 [3]
"COc1ccc(/C=C/c2nc(N3CCOCC3)c(N)c(N(C)C3CCN(C)CC3)n2)cc1 [Compound 198, 5-amino-2-[2-(4-methoxyphenyl)vinyl]-4-[N-methyl-N-(1-methylpiperidin-4-yl)amino]-6-morpholinopyrimidine]",1.04 µM,10 µM,3.74 µM
"COc1ccc(CCc2nc(N3CCNCC3)c(N)c(N3CCOCC3)n2)cc1 [Compound 199, 5-amino-2-[2-(4-methoxyphenyl)ethyl]-4-(1-piperazinyl)-6-morpholinopyrimidine]",8.12 µM,10 µM,3.05 µM
"COc1ccc(/C=C/c2nc(N3CCOCC3)c(F)c(N3CCOCC3)n2)cc1 [Compound 216, 5-fluoro-2-[2-(4-methoxyphenyl)vinyl]-4,6-dimorpholinopyrimidine]",0.86 µM,3 µM,0.73 µM
